Results on 31 molecules are retold here after ChEMBL document CHEMBL3046486, “Insights into the structural requirement of 6-nitroquinolone-3-carboxylic acids as antimycobacterial agent: chemometric approaches” (2012).

This assay deals with Mycobacterium tuberculosis. The assay can be described thus: Antimycobacterial activity against Mycobacterium tuberculosis by NCCLS agar dilution method. The format is functional. Background: Agar dilution tests growth on a series of plates holding different concentrations.
With `CC(C)(C)n1cc(C(=O)O)c(=O)c2cc([N+](=O)[O-])c(N3CCSCC3)cc21`, the “-logMIC” value is listed as 5.097.

On to `CC(C)(C)NC(=O)C1c2ccccc2CCN1c1cc2c(cc1[N+](=O)[O-])c(=O)c(C(=O)O)cn2C1CC1` (stereo unspecified), for which the “-logMIC” value was 5.81.

As for `O=C(O)c1cn(-c2ccc(F)cc2)c2cc(N3CCSCC3)c([N+](=O)[O-])cc2c1=O`, the “-logMIC” value worked out at 4.837.

As for `CC1CN(c2cc3c(cc2[N+](=O)[O-])c(=O)c(C(=O)O)cn3C2CC2)CC(C)O1` (stereo unspecified), the “-logMIC” value is given as 5.697.

Take `O=C(O)c1cn(-c2ccc(F)cc2)c2cc(N3CCN(C(=O)c4ccco4)CC3)c([N+](=O)[O-])cc2c1=O`: the “-logMIC” value amounted to 5.209.

As for `O=C(O)c1cn2c(n1)CN(c1cc3c(cc1[N+](=O)[O-])c(=O)c(C(=O)O)cn3-c1ccc(F)cc1)CC2`, the “-logMIC” value was determined as 4.92.

Regarding `O=C(O)c1cn(-c2ccc(F)cc2)c2cc(N3CCN(C(c4ccccc4)c4ccc(Cl)cc4)CC3)c([N+](=O)[O-])cc2c1=O` (stereo unspecified), the “-logMIC” value was 4.992.

Turning to `O=C(O)c1cn(C2CC2)c2cc(N3CCN(C(c4ccccc4)c4ccc(Cl)cc4)CC3)c([N+](=O)[O-])cc2c1=O` (stereo unspecified), the “-logMIC” value stood at 5.253.

For `O=C(O)c1cn(-c2ccc(F)cc2)c2cc(N3CCC(n4c(=O)[nH]c5cc(Cl)ccc54)CC3)c([N+](=O)[O-])cc2c1=O`, the “-logMIC” value turned out to be 5.266.

`COc1ccc(CC2C3=C(CCCC3)CCN2c2cc3c(cc2[N+](=O)[O-])c(=O)c(C(=O)O)cn3-c2ccc(F)cc2)cc1` (stereo unspecified): the “-logMIC” value is on record as 5.271.

Turning to `O=C(O)c1cn(C2CC2)c2cc(N3CCC(O)(c4ccc(Cl)cc4)CC3)c([N+](=O)[O-])cc2c1=O`, the “-logMIC” value came out at 6.092.

On to `O=C(O)c1cn(-c2ccc(F)cc2)c2cc(N3CCN(C(=O)C4COc5ccccc5O4)CC3)c([N+](=O)[O-])cc2c1=O` (stereo unspecified), for which the “-logMIC” value was found to be 5.565.

For the molecule `O=C(O)c1cn(-c2ccc(F)cc2)c2cc(N3CCC(N4CCCCC4)CC3)c([N+](=O)[O-])cc2c1=O`, the “-logMIC” value worked out at 5.199.

Take `O=C(O)c1cn(-c2ccc(F)cc2)c2cc(N3CCC4(CC3)OCCO4)c([N+](=O)[O-])cc2c1=O`: the “-logMIC” value is listed as 5.176.

For `CC(C)(C)n1cc(C(=O)O)c(=O)c2cc([N+](=O)[O-])c(N3CCN(C(c4ccccc4)c4ccc(Cl)cc4)CC3)cc21` (stereo unspecified), the “-logMIC” value turned out to be 5.264.

Turning to `O=C(O)c1cn(-c2ccc(F)cc2)c2cc(N3CCN(Cc4ccc5c(c4)OCO5)CC3)c([N+](=O)[O-])cc2c1=O`, the “-logMIC” value is on record as 5.545.

Turning to `O=C(O)c1cn(C2CC2)c2cc(N3CCC(N4CCCCC4)CC3)c([N+](=O)[O-])cc2c1=O`, the “-logMIC” value was found to be 6.367.

For `CC(C)(C)n1cc(C(=O)O)c(=O)c2cc([N+](=O)[O-])c(N3CCC4(CC3)OCCO4)cc21`, the “-logMIC” value was 5.128.

For `CC(C)(C)n1cc(C(=O)O)c(=O)c2cc([N+](=O)[O-])c(N3CCn4cc(C(=O)O)nc4C3)cc21`, the “-logMIC” value was determined as 5.163.

Consider `CC(C)(C)n1cc(C(=O)O)c(=O)c2cc([N+](=O)[O-])c(N3CCN(C(=O)c4ccco4)CC3)cc21`, for which the “-logMIC” value was 5.175.

For `O=C(O)c1cn(C2CC2)c2cc(N3CCN(C(=O)C4COc5ccccc5O4)CC3)c([N+](=O)[O-])cc2c1=O` (stereo unspecified), the “-logMIC” value came out at 5.524.

With `Cc1onc(-c2c(F)cccc2F)c1C(=O)N1CCN(c2cc3c(cc2[N+](=O)[O-])c(=O)c(C(=O)O)cn3-c2ccc(F)cc2)CC1`, the “-logMIC” value worked out at 5.306.

For the molecule `CC1CN(c2cc3c(cc2[N+](=O)[O-])c(=O)c(C(=O)O)cn3-c2ccc(F)cc2)CC(C)O1` (stereo unspecified), the “-logMIC” value was found to be 5.452.

As to `CC(C)(C)NC(=O)C1c2ccccc2CCN1c1cc2c(cc1[N+](=O)[O-])c(=O)c(C(=O)O)cn2-c1ccc(F)cc1` (stereo unspecified), the “-logMIC” value is recorded as 5.252.

As to `CC(C)(C)n1cc(C(=O)O)c(=O)c2cc([N+](=O)[O-])c(N3CCC(n4c(=O)[nH]c5cc(Cl)ccc54)CC3)cc21`, the “-logMIC” value worked out at 5.237.

On to `CCN(CC)C(=O)C1CCCN(c2cc3c(cc2[N+](=O)[O-])c(=O)c(C(=O)O)cn3-c2ccc(F)cc2)C1` (stereo unspecified), for which the “-logMIC” value was determined as 5.213.

On to `CC(C)(C)n1cc(C(=O)O)c(=O)c2cc([N+](=O)[O-])c(N3CCN(Cc4ccc5c(c4)OCO5)CC3)cc21`, for which the “-logMIC” value came to 5.513.

In the case of `CCN(CC)C(=O)C1CCCN(c2cc3c(cc2[N+](=O)[O-])c(=O)c(C(=O)O)cn3C(C)(C)C)C1` (stereo unspecified), the “-logMIC” value is given as 5.179.

Regarding `O=C(O)c1cn(C2CC2)c2cc(N3CCSCC3)c([N+](=O)[O-])cc2c1=O`, the “-logMIC” value was 5.38.

`CCN(CC)C(=O)C1CCCN(c2cc3c(cc2[N+](=O)[O-])c(=O)c(C(=O)O)cn3C2CC2)C1` (stereo unspecified): the “-logMIC” value was found to be 5.466.

For the molecule `CN1CCN(c2cc3c(cc2[N+](=O)[O-])c(=O)c(C(=O)O)cn3C(C)(C)C)CC1c1ccccc1` (stereo unspecified), the “-logMIC” value is given as 4.793.
